Read-outs that look alike come from different tables or passages of the source.
What was measured:
GST M1a-1a = target: T1, GST M1a-1a (Homo sapiens, UniProt P09488); settings: cited from earlier work
T1 sequence (P09488 1-218): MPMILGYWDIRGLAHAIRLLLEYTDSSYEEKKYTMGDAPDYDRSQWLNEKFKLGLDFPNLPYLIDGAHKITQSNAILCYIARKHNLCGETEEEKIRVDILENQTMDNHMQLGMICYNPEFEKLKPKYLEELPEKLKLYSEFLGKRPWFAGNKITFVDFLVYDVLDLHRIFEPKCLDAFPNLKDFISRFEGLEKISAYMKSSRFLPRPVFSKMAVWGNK

[1] = tested on: ovarian, breast, non-small cell lung, and colorectal cancers
[2] = tested on: human breast cancer cell line MCF-7; assay: MCF-7 cell proliferation, BrdU chemiluminescence assay (Example 4); format: cell-based
Procedure: (§1) Assay methods. All assays were conducted in triplicate wells, with solvent control. The extent of cell growth was expressed as a percentage of the signal from the solvent control wells. The means were computed and graphed, with the standard deviations shown as error bars.
MCF-7 was seeded at 4×10^4 cells/mL, 150 μL/well, and allowed to attach to the wells for 4-5 hours. The diluted compounds or solvent controls were then added at 50 μL/well. Incubation with TLK286 alone and in combination with docetaxel was continued for one doubling, and cell proliferation was determined using the BrdU (chemiluminescence) assay, by labeling with BrdU (Roche Diagnostics Corporation, Indianapolis, Ind., U.S.A.) overnight. The assay is based on the incorporation of BrdU, an analogue of thymidine, during DNA synthesis. The incorporation of BrdU, which reflects the extent of cell proliferation, was then quantitated with an ELISA kit (also from Roche Diagnostics Corporation). The results were analyzed according to the Combination Index method.

[3] = tested on: human ovarian cancer cell line OVCAR-3
Procedure: The results were analyzed according to the Combination Index method with the “CalcuSyn” program from Biosoft.

[4] = tested on: M6709 human colon carcinoma cell line selected for resistance to doxorubicin; settings: doxorubicin-resistant line overexpressing GST P1-1; Morgan et al. 1998; cited from earlier work
[5] = tested on: in vitro cell culture and tumor biopsies; settings: Rosario et al. 2000; cited from earlier work
[6] = tested on: human colon cancer cell line DLD-1; assay: cells; format: cell-based; settings: DLD-1, read-out: IC20 (concentration of TLK286 used in FIG. 2)
Procedure: as §1
The human colon cancer cell line DLD-1 was seeded at 4×10^4 cells/mL, 150 μL/well, and allowed to attach to the wells overnight. The diluted compounds or solvent controls were then added at 50 μL/well. Incubation with TLK286 alone and in combination with oxaliplatin was continued for approximately four cell doublings, and cell viability was determined using the CellTiter-Glo assay (Promega Corporation, Madison, Wis., U.S.A.), used in accordance with the assay kit directions. […] The results were further analyzed using the Combination Index (CI) method with the “CalcuSyn” program from Biosoft.

[7] = tested on: murine xenografts of M7609 engineered to have high, medium, and low levels of GST P1-1; settings: Morgan et al. 1998; cited from earlier work
GST A1-1 = target: T2, GST A1-1 (Homo sapiens, UniProt P08263); settings: cited from earlier work
T2 sequence (P08263 2-222 limits assumed): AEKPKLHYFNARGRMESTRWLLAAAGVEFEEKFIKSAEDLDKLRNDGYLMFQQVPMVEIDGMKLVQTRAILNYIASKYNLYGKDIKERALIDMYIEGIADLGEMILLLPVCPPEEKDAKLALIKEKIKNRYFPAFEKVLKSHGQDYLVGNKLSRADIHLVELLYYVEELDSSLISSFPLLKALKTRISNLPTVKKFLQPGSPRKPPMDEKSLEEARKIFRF

[8] = tested on: MCF-7 human breast carcinoma cell line selected for resistance to cyclophosphamide; settings: cyclophosphamide-resistant line overexpressing GST P1-1; Morgan et al. 1998; cited from earlier work
[9] = tested on: human lung cancer cell line A-549; assay: cells; format: cell-based; settings: A549, read-out: IC50 (concentration of TLK286 used in FIG. 5)
[10] = tested on: human non-Hodgkin's B cell lymphoma cell line RL; assay: RL cell growth, method similar to Example 2 (Example 8); format: cell-based; settings: RL cells
[11] = tested on: human ovarian cancer cell line OVCAR-3; assay: OVCAR-3 cell viability, Wst-1 assay (Example 1); format: cell-based; settings: OVCAR-3, Wst-1, approximately three cell doublings
Procedure: as §1
The diluted compounds or solvent controls were then added at 50 μL/well. […] The results were further analyzed using the Combination Index (CI) method with the “CalcuSyn” program from Biosoft.

GST P1-1 = GST P1-1 (Homo sapiens, UniProt P09211); settings: releases cytotoxic phosphorodiamidate mustard moiety; cited from earlier work
Sequence of GST P1-1 (P09211 2-210 limits assumed): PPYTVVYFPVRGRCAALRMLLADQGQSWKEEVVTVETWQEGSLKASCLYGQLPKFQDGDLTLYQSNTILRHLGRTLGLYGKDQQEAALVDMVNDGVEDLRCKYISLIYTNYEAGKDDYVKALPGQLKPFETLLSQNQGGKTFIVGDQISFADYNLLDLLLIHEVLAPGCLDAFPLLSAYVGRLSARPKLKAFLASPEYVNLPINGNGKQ

[12] = tested on: human breast cancer cell line MX-1; assay: MX-1 cell growth, method similar to Example 2 (Example 9); format: cell-based; settings: MX-1 cells

N[C@@H](CCC(=O)N[C@@H](CS(=O)(=O)CCOP(=O)(N(CCCl)CCCl)N(CCCl)CCCl)C(=O)NCC(=O)O)C(=O)O [TLK231, L-γ-glutamyl-3-[[2-[[bis[bis(2-chloroethyl)amino]phosphinyl]oxy]ethyl]sulfonyl]-L-alanyl-glycine]
activation by GST isoenzyme (GST M1a-1a): activated

N[C@@H](CCC(=O)N[C@@H](CS(=O)(=O)CCOP(=O)(N(CCCl)CCCl)N(CCCl)CCCl)C(=O)N[C@@H](C(=O)O)c1ccccc1)C(=O)O [TLK286, L-γ-glutamyl-3-[[2-[[bis[bis (2-chloroethyl)amino]phosphinyl]oxy]ethyl]sulfonyl]-L-alanyl-2-phenyl-(2R)-glycine]
single agent clinical activity ([1]; colorectal and breast cancer): single agent antitumor activity
single agent clinical activity ([1]; patients with non-small cell lung cancer and ovarian cancer): significant single agent antitumor activity and improvement in survival
IC40 (concentration of TLK286 used in FIG. 4) ([2]; MCF-7, BrdU incorporation, one doubling): ~3.3 µM
IC10 (concentration of TLK286 used in FIG. 3) [3]: ~1.7 µM
potency in resistant line over parental cell line [4]: more potent
cross-resistance to platinum, paclitaxel, doxorubicin and gemcitabine [5]: non-cross-resistant
IC20 [6]: ~9 µM
potency in xenografts versus GST P1-1 level [7]: positively correlated with the level of GST P1-1
activation by GST isoenzyme (GST A1-1): activated
potency in resistant line over parental cell line [8]: more potent
IC50 [9]: ~4 µM
IC25 (concentration of TLK286 used in FIG. 8) [10]: ~4.6 µM
IC30 (concentration of TLK286 used in FIG. 1) [11]: ~3.1 µM
activation by GST isoenzyme (GST P1-1): activated

N[C@@H](CCC(=O)N[C@@H](Cc1cccc(S(=O)(=O)CCOP(=O)(N(CCCl)CCCl)N(CCCl)CCCl)c1)C(=O)NCC(=O)O)C(=O)O [TLK296, L-γ-glutamyl-3-[[2-[[bis[bis(2-chloroethyl)amino]phosphinyl]oxy]ethyl]sulfonyl]-L-phenylalanyl-glycine]
activation by GST isoenzyme (GST P1-1): activated

C[C@@](NC(=O)[C@H](CS(=O)(=O)CCOP(=O)(N(CCCl)CCCl)N(CCCl)CCCl)NC(=O)CC[C@H](N)C(=O)O)(C(=O)O)c1ccccc1 [TLK303, L-γ-glutamyl-3-[[2-[[bis[bis(2-choroethyl)-amino]phosphinyl]oxy]ethyl]sulfonyl]-L-alanyl-2-phenyl-(2S) -alanine]
activation by GST isoenzyme (GST A1-1): activated

CC(=O)O[C@@]12CO[C@@H]1C[C@H](O)[C@@]1(C)C(=O)[C@H](O)C3=C(C)[C@@H](OC(=O)[C@H](O)[C@@H](NC(=O)OC(C)(C)C)c4ccccc4)C[C@@](O)([C@@H](OC(=O)c4ccccc4)[C@H]21)C3(C)C [docetaxel, reference compound]
inhibition of proliferation at top of concentration range ([2]; MCF-7, BrdU, docetaxel about 0.8 to 3 nM, from nearly no effect): ~60%

COc1cc2ncnc(Nc3ccc(F)c(Cl)c3)c2cc1OCCCN1CCOCC1 [gefitinib]
IC30 (concentration of gefitinib used in FIG. 9) [12]: ~2.0 µM
